Source: US7468379B2, “Inhibition of osteolytic lesions by SRC kinase inhibitors” (The Board of Regents of the University of Texas System, priority 2005, dated 2008)

How the values were obtained:
MDA-MB-435 cells = test: MDA-MB-435 Bone Tumor Mouse Model (intratibial injection); type: in vivo, Female athymic NCr nude mice; conditions: SKI606 150 mg/kg oral gavage, 9 weeks; tumor-injected tibia sections
Experimental: Mice were divided into 3 treatment groups. […] (FIG. 5A) Weight of tumor was determined as follows: weight of injected leg-weight of non-injected hind leg of the same animal. (FIG. 5B) Areas of lysis were estimated from digital X-ray images; NIH Scion program was used to measure area of tibias and lytic areas, to calculate the ratio of pixels in lytic zones/pixels in tibia area. (FIG. 5C) The tumor-injected tibia was fixed and decalcified in EDTA, and sections stained for the presence of multinucleated osteoclasts (>3 nuclei) using TRAP staining kit from Sigma-Aldrich (St. Louis, Mo.).
X-ray images were taken at 35 days after injection, and also at 14-day intervals. […]
Intrabone Injections and Processing of Bone Tissue Samples. […] After 9 weeks, final X-ray images were taken, tumor weight calculated from the difference in weight of the tumor-bearing and non tumor-bearing leg of the same animal. […] Incidence of tumor in the tibia was determined by examination of histology sections. Weight of tumor was determined as follows: weight of injected leg-weight of non-injected hind leg of the same animal. […]
Mice were divided into three treatment groups and the incidence of tumor in the tibia was determined by examination of histology sections and weight of tumor.

BMM cells [1] = test: Cytotoxicity assay against BMM cells (crystal violet); type: cell-based
Experimental: (§1) Primary Bone Marrow Cell Culture. Primary bone marrow cells (BMM) from the tibiae and femora were aseptically dissected from Black 6 mice (C57BU6J) 8-12 weeks of age. Bone marrow was flushed out with incomplete D-MEM and centrifuged at 1200 rpm for 3 minutes and re-suspended in 5 ml incomplete D-MEM. BMM cells were incubated in 20 ml Red Blood Cell lysis buffer (8.3 g/NH4Cl, 1 g/l sodium bicarbonate, 0.4 g/l EDTA) at room temperature for 1-2 min. 25 ml of D-MEM supplemented with 10% FBS and 100 units/ml penicillin (complete D-MEM) were added and BMM cells were centrifuged for 3 min at 1200 rpm. BMM cells were then plated at 1.5−2×10^7 cells/10 cm dish with 10 ml of complete D-MEM and cultured for 24 h. Non-adherent cells were collected and centrifuged for 5 min at 1200 rpm and plated at a concentration of 2.5×10^4 cells/well in a 96 well dish for cytotoxicity assay, 2×10^4 cells/well in 48-well plates, or 5×10^3 cells/well in 96-well plates for osteoclast differentiation assays. Cells were cultured for 3 days in the presence of 10 ng/ml M-CSF before they were washed and used for further studies. For differentiation into osteoclasts 30-100 ng/ml RANKL is added. Media was supplemented after 2 days with fresh M-CSF and RANKL.
Cytotoxicity Assay. […] Absorbance was measured at 630 nm using an EL800 universal microplate reader from Bio-Tek Instruments Inc (Winooski, Vt.).

RAW264.7 cells [2] = test: RAW264.7 with conditioned media from MDA-MB-435 cells, osteoclastogenesis (TRAP); type: cell-based, mouse; conditions: 10% conditioned media, 5 days
Experimental: (§2) FIGS. 4A-4B. […] (FIG. 4B) RAW264.7 cells (750 cells/well; 8 wells per treatment) were plated in 96 well plates in 10% conditioned media from MDA-MB-435 for 5 days. The cultures were fixed and stained for TRAP on day five, using a TRAP staining kit from Sigma-Aldrich (St. Louis, Mo.). Data shown is representative of five experiments.
For conditioned media the MDA-MB-435 cells were plated in 10 cm plates (1×10^6 cells/plate) and incubated for 36 hours. Media was then removed, centrifuged for 5 minutes at 2500 rpm and supernatants were isolated and placed in 4° C. until use. RAW264.7 cells (750 cells/well) were plated in 96 well plates and allowed to adhere for 12 hours. […] Cells were then fixed, stained for TRAP and the numbers of osteoclasts were counted in each condition as described above.

BMM cells [3] = test: Bone-resorption assay (collagen I release from OsteoAssay plates); type: cell-based, Black 6 mice (C57BL/6J); conditions: 300 nM SKI606 with M-CSF and RANKL, compared to M-CSF and RANKL treatment, day 5
Experimental: as §1, with “Cells were cultured for 3 days in the presence of 10 ng/ml M-CSF before they were washed and used for further studies. For differentiation into osteoclasts 30-100 ng/ml RANKL is added. Media was supplemented after 2 days with fresh M-CSF and RANKL.” left out
Bone-Resorption Assay. […] Bone resorption was evaluated by measuring collagen I release from the OsteoAssay plate using Cross Laps for Culture ELISA kit from Nordic Bioscience Diagnostics (Portsmouth, Va.). Absorbance was measured at 450 nm using the reading at 650 nm as reference using an EL800 universal microplate reader from Bio-Tek Instruments Inc (Winooski, Vt.).

[4] = test system: Src-dependent protein tyrosine phosphorylation; test: Src-dependent protein tyrosine phosphorylation; conditions: concentrations comparable to the Src enzyme IC50
BMM cells [5] = test: Time-dependency of osteoclast differentiation inhibition in BMM cells; type: cell-based, Black 6 mice (C57BL/6J); conditions: 300 nM SKI606 added 12, 24 or 48 hours post-RANKL stimulation, TRAP at 96 h
Text: (§3) FIGS. 2A-2B. BMM cells respond to SKI606 in a time-dependent manner. […] M-CSF was replenished on day 3. Cells were fixed and stained for TRAP on day five, using a TRAP staining kit from Sigma-Aldrich (St. Louis, Mo.). (FIG. 2B) Data shown is representative of three experiments. Photographs are of representative fields from the different treatments using a 10× objective lens.
(§4) Primary Bone Marrow Cell Culture. Primary bone marrow cells (BMM) from the tibiae and femora were aseptically dissected from Black 6 mice (C57BU6J) 8-12 weeks of age. Bone marrow was flushed out with incomplete D-MEM and centrifuged at 1200 rpm for 3 minutes and re-suspended in 5 ml incomplete D-MEM. BMM cells were incubated in 20 ml Red Blood Cell lysis buffer (8.3 g/NH4Cl, 1 g/l sodium bicarbonate, 0.4 g/l EDTA) at room temperature for 1-2 min. 25 ml of D-MEM supplemented with 10% FBS and 100 units/ml penicillin (complete D-MEM) were added and BMM cells were centrifuged for 3 min at 1200 rpm. BMM cells were then plated at 1.5−2×10^7 cells/10 cm dish with 10 ml of complete D-MEM and cultured for 24 h. […]
Time-dependency. […] Cells were then fixed, stained for TRAP and the numbers of osteoclasts were counted in each condition as described above.

RAW264.7 cells [6] = test: RAW264.7 co-culture with MDA-MB-435 cells, osteoclastogenesis (TRAP); type: cell-based, mouse; conditions: 400 nM SKI606, 5 days
Experimental: as §2
RAW 264.7 Co-culture with MDA MB435 cells and Conditioned Media. For co-culture assays RAW264.7 (500 cells/well) were plated in 96 well plates and allowed to adhere for 12 hours. MDA-MB-435 were then introduced into the RAW264.7 culture at increasing density and incubated for 12 hours. […] Cells were then fixed, stained for TRAP and the numbers of osteoclasts were counted in each condition as described above.

BMM cells [7] = test: In vitro RANKL-mediated osteoclast differentiation of BMM cells (TRAP staining); type: cell-based, Black 6 mice (C57BL/6J); conditions: M-CSF 10 ng/ml and RANKL 100 ng/ml, TRAP staining on day five
Text: as §3, with “1A-1C.” for “2A-2B. BMM cells respond to SKI606 in a time-dependent manner.”, “1C)” for “2B)”, “Shown” for “Photographs”, “are photographs” for “are”
as §4
In Vitro Osteoclast Differentiation. […] At day 5, cells were fixed and assessed for osteoclast differentiation by counting the total number of TRAP-positive, multinucleated (>3 nuclei), cells per well 96 h post-treatment using Leucocyte Acid phosphatase kit from Sigma-Aldrich (St. Louis, Mo.).

With `COc1cc(Nc2c(C#N)cnc3cc(OCCCN4CCN(C)CC4)c(OC)cc23)c(Cl)cc1Cl` [SKI606, 4-((2,4-Dichloro-5-methoxyphenyl)amino)-6-methoxy-7-(3-(4-methyl-1-piperazinyl)propoxy)-3-quinolinecarbonitrile] the “TRAP-positive cells counted in sections of tumors” value (MDA-MB-435 cells) was “significantly fewer”, the “cells died (cytotoxicity to BMM cells)” value (BMM cells [1]; 600 nM SKI606, 72 h) was “less than 10%” and the “cytotoxicity to BMM cells” value (BMM cells [1]; 72 h) was “not cytotoxic”. The “inhibition of osteoclastogenesis induced by conditioned media from MDA-MB-435 cells” value (RAW264.7 cells [2]) was “able to inhibit”, the “decrease in collagen I release, an indicator of bone resorption” value (BMM cells [3]) was 3.7 fold and the “inhibition of Src-dependent protein tyrosine phosphorylation” value [4] was “inhibits Src-dependent protein tyrosine phosphorylation at comparable concentrations”. The “sensitivity of BMM cells to compound added after initiation of osteoclastogenesis” value (BMM cells [5]) was “less sensitive”, the “inhibition of MDA-MB-435-induced osteoclastogenesis in RAW264.7 cells” value (RAW264.7 cells [6]) was “significantly inhibited” and the “effect on RANKL-mediated osteoclast differentiation in BMM” value (BMM cells [7]) was “inhibitory effect on RANKL-mediated osteoclast differentiation in BMM in a dose dependent manner”.
